Measurements from patent US7361743B2 (Pfizer Inc, priority 2004, dated 2008).
Values after ≈ are worked out from the molar mass of the structure shown. Read-outs that look alike come from different tables or passages of the source.

What was measured:
[1] = tested on: Staphylococcus aureus Smith; assay: Efficacy in murine S. aureus septicemia; format: in vivo, ICR mice; details: for Efficacy in the murine S. aureus septicemia model relative to clindamycin: IV route of administration, compound given 1 hour after inoculation; for ED50: Staphylococcus aureus, murine S. aureus Smith septicemia, dosed 1 hour after inoculation, mortality 7 days
Experimental: (§1) Efficacy studies were performed in an S. aureus murine septicemia model according to models published elsewhere (Goldstein, B. P., G. Candiani, T. M. Arain, G. Romano, I. Ciciliato, M. Berti, M. Abbondi, R. Scotti, M. Mainini, F. Ripamonti, and et al. 1995. Antimicrobial activity of MDL 63,246, a new semisynthetic glycopeptide antibiotic Antimicrob. Agents Chemother. 39:1580-1588; Misiek, M., T. A. Pursiano, F. Leitner, and K. E. Price 1973. Microbiological properties of a new cephalosporin, BL-S 339:7-(phenylacetimidoyl-aminoacetamido)-3-(2-methyl-1,3,4-thiadiazol-5-ylthio methyl)ceph-3-em-4-carboxylic acid Antimicrob. Agents Chemother. 3:40-48).
Compounds were dissolved in 2% Tween 80 for oral dosing or 0.9% NaCl solution for intravenous dosing. Compounds were administered at 1 hour after bacterial inoculation. Vancomycin or ampicillin were used as controls.
(§2) Male or female ICR mice weighing 22±2 g from MDS Pharma Services were used for the evaluation. Food and water was given ad libitum. Groups of 6 mice weighing […] were used for the experiment. Mice were inoculated intraperitoneally with Staphylococcus aureus Smith at 4 104 CFU in 0.5 ml of Brain Heart Infusion Broth (Difco) containing 5% mucin (Sigma). Mortality was recorded once daily for 7 days following bacterial inoculation.
as §1, with “39:1580-1588.;” for “39:1580-1588;”, “339: 7-(phenylacetimidoyl-aminoacetamido)-3-(2-methyl-1,3,4-thiadiazol-5-ylthio” for “339:7-(phenylacetimidoyl-aminoacetamido)-3-(2-methyl-1,3,4-thiadiazol-5-ylthio”
as §2, with “mL” for “ml”

Enterococcus faecalis = assay: Susceptibility testing, NCCLS microdilution MIC; format: cell-based; details: Enterococcus faecalis, Example A′
[2] = tested on: E. coli transcription/translation (bacterial protein synthesis, E. coli S30 extract); assay: In vitro inhibition of E. coli transcription and translation assay (TT), cell-free; format: biochemical; details: for IC50: cell-free E. coli S30 extract; for In vitro inhibition of E. coli transcription and translation compared with literature azepine compound VIII(18): cell-free TT assay, comparison in words
Experimental: Inhibition of bacterial protein synthesis was assayed in a cell-free E. coli transcription/translation assay.
Stock solutions of compounds were prepared at 10 mg/mL in DMSO. The assay contained less or equal to 1% (v/v) final concentration of DMSO. Three-fold serial dilutions were prepared in assay buffer at 6-fold final concentration in 96 well microtiter plate.
All vials, tubes and microtiter plates are RNase free. The Mix was freshly prepared with 10 μl H2O, 10 μl AA-M, 10 μl AA-L, 80 μl Premix and 50 μl ES30 extract. The assay was performed in a 96-well plate. Five microliters of compounds at various concentrations (6-fold final assay concentration) were preincubated with 20 μl of the mix for 5 min at room temperature. The reaction started with addition of 5 μl of plasmid (˜0.1 mg/mL pGEMBGAL), and kept at 37° C. for 1 h followed by the addition of 150 μl of OPNG solution (4 mg/mL OPNG in 0.1M NaPi, pH 7.5, 1 mM MgCl2 and 2 mM DTT). 150 μl of the reaction was transferred to a ½-area plate and increase in absorption at OD420 nm was monitored for 10 min using a Spectramax plate reader (Molecular Devices). The slope of absorption change over time is corresponding to the pathway activity.
The E. coli S30 Extract for circular DNA kit was purchased from Promega. Original plasmid pGEMBGAL was obtained from Promega and amplified via Maxiprep in house. 2-Nitrophenyl β-D-galactopyranoside was obtained from Sigma. Clindamycin HCl (USP) was purchased from Spectrum.
The inhibition are expressed as percent of control activity (without inhibitor) which is calculated according to equation (1): Inhibition %=(compound slope-blank slope)/(control slope-blank slope)*100 (1)
All IC50s were determined by fitting the experimental data to equation (2) using software DeltaGraph (DeltaPoint Inc.): Y=Y0/(1+(X/IC50)[…])+c (2)
Where Y: activity at given inhibitor concentration; Y0: activity without inhibitor; X: inhibitor concentration; d: slope; c: constant.
Lincosamides inhibit bacterial growth through binding to the bacterial 50S ribosome, thus inhibiting peptide bond formation. The transcription/translation assay provides a screening tool to measure inhibition of bacterial protein synthesis pathway at the target level without the complication of differences in membrane permeability.

Bacteroides fragilis = assay: Susceptibility testing, NCCLS microdilution MIC (anaerobe); format: cell-based; details: Bacteroides fragilis, ATCC25285; B. fragilis ATCC 25285; Example A′; read-out: MIC B. fragilis
Haemophilus influenzae = assay: Susceptibility testing, NCCLS microdilution MIC; format: cell-based; details: Haemophilus influenzae, Example A′
Staphylococcus aureus = assay: Susceptibility testing, NCCLS microdilution MIC; format: cell-based
[3] = intravenous administration, read-out: ED50, IV
[4] = ATCC29212, E. faecalis ATCC 29212, read-out: MIC E. faecalis
[5] = ATCC31517, H. influenzae ATCC 31517, read-out: MIC H. influenzae
[6] = ATCC25923, S. aureus ATCC 25923, Example A′, read-out: MIC S. aureus

## CS[C@H]1O[C@H]([C@H](NC(=O)C2CC[C@H](CCCCF)CCN2)[C@H](C)Cl)[C@H](O)[C@H](O)[C@H]1O (stereo in doubt) [Example 3′, 5-(4-Fluoro-butyl)-azepane-2-carboxylic acid [2-chloro-1-(3,4,5-trihydroxy-6-methylsulfanyl-tetrahydro-pyran-2-yl)-propyl]-amide]
[1]; mice
  Efficacy in the murine S. aureus septicemia model relative to clindamycin: three to greater than five fold better
[1]; [3]
  ED50: 0.32 mg/kg
Enterococcus faecalis; [4]
  MIC: 0.06 µg/mL (≈ 0.127 µM)
[2]
  IC50: 190 nM
  In vitro inhibition of E. coli transcription and translation compared with literature azepine compound VIII(18): markedly superior
Bacteroides fragilis
  MIC: 0.5 µg/mL (≈ 1.06 µM)
Haemophilus influenzae; [5]
  MIC: 0.25 µg/mL (≈ 0.531 µM)
Staphylococcus aureus; [6]
  MIC: 0.03 µg/mL (≈ 0.0637 µM)

## CS[C@H]1O[C@H]([C@H](NC(=O)C2CC[C@H](CCCCF)CCN2)C(C)C)[C@H](O)[C@H](O)[C@H]1O (stereo in doubt) [Example 4′, 5-(4-Fluoro-butyl)-azepane-2-carboxylic acid [2-methyl-1-(3,4,5-trihydroxy-6-methylsulfanyl-tetrahydro-pyran-2-yl)-propyl]-amide]
[1]; mice
  Efficacy in the murine S. aureus septicemia model relative to clindamycin: three to greater than five fold better
[1]; [3]
  ED50: 0.28 mg/kg
Enterococcus faecalis; [4]
  MIC: 0.125 µg/mL (≈ 0.277 µM)
[2]
  IC50: 490 nM
  In vitro inhibition of E. coli transcription and translation compared with literature azepine compound VIII(18): markedly superior
Bacteroides fragilis
  MIC: 1 µg/mL (≈ 2.22 µM)
Haemophilus influenzae; [5]
  MIC: 0.5 µg/mL (≈ 1.11 µM)
Staphylococcus aureus; [6]
  MIC: 0.06 µg/mL (≈ 0.133 µM)

## CS[C@H]1O[C@H]([C@H](NC(=O)C2CC[C@H](CCCF)CCN2)[C@H](C)Cl)[C@H](O)[C@H](O)[C@H]1O (stereo in doubt) [Example 5′, 5-(3-Fluoro-propyl)-azepane-2-carboxylic acid [2-chloro-1-(3,4,5-trihydroxy-6-methylsulfanyl-tetrahydro-pyran-2-yl)-propyl]-amide]
[1]; mice
  Efficacy in the murine S. aureus septicemia model relative to clindamycin: three to greater than five fold better
[1]; [3]
  ED50: 0.18 mg/kg
[1]; oral administration, read-out: ED50, PO
  ED50: 6.84 mg/kg
[1]; oral route of administration, mice
  Efficacy in the murine S. aureus septicemia model by oral route: demonstrated the potential for use of the compounds as orally administered therapeutic agents
Enterococcus faecalis; [4]
  MIC: 0.06 µg/mL (≈ 0.131 µM)
[2]
  IC50: 2410 nM
  In vitro inhibition of E. coli transcription and translation compared with literature azepine compound VIII(18): markedly superior
Bacteroides fragilis
  MIC: 0.25 µg/mL (≈ 0.547 µM)
Haemophilus influenzae; [5]
  MIC: 0.25 µg/mL (≈ 0.547 µM)
Staphylococcus aureus; [6]
  MIC: 0.03 µg/mL (≈ 0.0656 µM)

## CS[C@H]1O[C@H]([C@H](NC(=O)[C@@H]2CC[C@H](CCCCOc3cccnc3)CCN2)[C@H](C)Cl)[C@H](O)[C@H](O)[C@H]1O [Example 14′, 5-[4-(Pyridin-3-yloxy)-butyl]-azepane-2-carboxylic acid [2-chloro-1-(3,4,5-trihydroxy-6-methylsulfanyl-tetrahydro-pyran-2-yl)-propyl]-amide]
Enterococcus faecalis; [4]
  MIC: 0.5 µg/mL (≈ 0.916 µM)
[2]
  IC50: 200 nM
  In vitro inhibition of E. coli transcription and translation compared with literature azepine compound VIII(18): markedly superior
Bacteroides fragilis
  MIC: 8 µg/mL (≈ 14.6 µM)
Haemophilus influenzae; [5]
  MIC: 1 µg/mL (≈ 1.83 µM)
Staphylococcus aureus; [6]
  MIC: 0.125 µg/mL (≈ 0.229 µM)

## CS[C@H]1O[C@H]([C@H](NC(=O)[C@@H]2CC[C@H](CCCOc3cccnc3)CCN2)[C@H](C)Cl)[C@H](O)[C@H](O)[C@H]1O [Example 15′, 5-[3-(Pyridin-3-yloxy)-propyl]-azepane-2-carboxylic acid [2-chloro-1-(3,4,5-trihydroxy-6-methylsulfanyl-tetrahydro-pyran-2-yl)-propyl]-amide]
Enterococcus faecalis; [4]
  MIC: 0.5 µg/mL (≈ 0.94 µM)
[2]
  IC50: 1100 nM
  In vitro inhibition of E. coli transcription and translation compared with literature azepine compound VIII(18): markedly superior
Bacteroides fragilis
  MIC: > 8 µg/mL
Haemophilus influenzae; [5]
  MIC: 2 µg/mL (≈ 3.76 µM)
Staphylococcus aureus; [6]
  MIC: 0.125 µg/mL (≈ 0.235 µM)

## COCc1cn(CCC[C@@H]2CCN[C@H](C(=O)N[C@@H]([C@H]3O[C@H](SC)[C@H](O)[C@@H](O)[C@H]3O)[C@H](C)Cl)CC2)nn1 [Example 16′, 5-[3-(4-Methoxymethyl-[1,2,3]triazol-1-yl)-propyl]-azepane-2-carboxylic acid [2-chloro-1-(3,4,5-trihydroxy-6-methylsulfanyl-tetrahydro-pyran-2-yl)-propyl]-amide]
Enterococcus faecalis; [4]
  MIC: > 8 µg/mL
[2]
  IC50: 440 nM
  In vitro inhibition of E. coli transcription and translation compared with literature azepine compound VIII(18): markedly superior
Bacteroides fragilis
  MIC: > 8 µg/mL
Haemophilus influenzae; [5]
  MIC: 2 µg/mL (≈ 3.64 µM)
Staphylococcus aureus; [6]
  MIC: 2 µg/mL (≈ 3.64 µM)

## CCCc1cn(CCC[C@@H]2CCN[C@H](C(=O)N[C@@H]([C@H]3O[C@H](SC)[C@H](O)[C@@H](O)[C@H]3O)[C@H](C)Cl)CC2)nn1 [Example 17′, 5-[3-(4-Propyl-[1,2,3]triazol-1-yl)-propyl]-azepane-2-carboxylic acid [2-chloro-1-(3,4,5-trihydroxy-6-methylsulfanyl-tetrahydro-pyran-2-yl)-propyl]-amide]
Enterococcus faecalis; [4]
  MIC: 8 µg/mL (≈ 14.6 µM)
[2]
  IC50: 750 nM
  In vitro inhibition of E. coli transcription and translation compared with literature azepine compound VIII(18): markedly superior
Bacteroides fragilis
  MIC: > 8 µg/mL
Haemophilus influenzae; [5]
  MIC: 4 µg/mL (≈ 7.3 µM)
Staphylococcus aureus; [6]
  MIC: 1 µg/mL (≈ 1.82 µM)

## CS[C@H]1O[C@H]([C@H](NC(=O)[C@@H]2CC[C@H](CCCn3cc(C(C)C)nn3)CCN2)[C@H](C)Cl)[C@H](O)[C@H](O)[C@H]1O [Example 18′, 5-[3-(4-(2-Propyl)-[1,2,3]triazol-1-yl)-propyl]-azepane-2-carboxylic acid [2-chloro-1-(3,4,5-trihydroxy-6-methylsulfanyl-tetrahydro-pyran-2-yl)-propyl]-amide]
Enterococcus faecalis; [4]
  MIC: 4 µg/mL (≈ 7.3 µM)
[2]
  IC50: 440 nM
  In vitro inhibition of E. coli transcription and translation compared with literature azepine compound VIII(18): markedly superior
Bacteroides fragilis
  MIC: > 8 µg/mL
Haemophilus influenzae; [5]
  MIC: 4 µg/mL (≈ 7.3 µM)
Staphylococcus aureus; [6]
  MIC: 1 µg/mL (≈ 1.82 µM)

## CS[C@H]1O[C@H]([C@H](NC(=O)[C@@H]2CCCCCN2)[C@H](C)Cl)[C@H](O)[C@H](O)[C@H]1O [VIII(18), Azepane-2-carboxylic acid [2-chloro-1-(3,4,5-trihydroxy-6-methylsulfanyl-tetrahydro-pyran-2-yl)-propyl]-amide, reference compound]
Enterococcus faecalis; [4]
  MIC: 8 µg/mL (≈ 20.2 µM)
Enterococcus faecalis; strain not stated, 24 h at 35° C., read-out: MIC against Enterococcus faecalis
  MIC: 8 µg/mL (≈ 20.2 µM)
[2]
  IC50: 21000 nM
Bacteroides fragilis
  MIC: 2 µg/mL (≈ 5.04 µM)
Haemophilus influenzae; [5]
  MIC: > 8 µg/mL
Haemophilus influenzae; strain not stated, 24 h at 35° C., read-out: MIC against Haemophilus influenzae
  MIC: > 8 µg/mL
Staphylococcus aureus; [6]
  MIC: 4 µg/mL (≈ 10.1 µM)
Staphylococcus aureus; Example A′, strain not stated, 24 h at 35° C., read-out: MIC against Staphylococcus aureus
  MIC: 4 µg/mL (≈ 10.1 µM)
